Laboratory results as given in patent publication US7041639B2, “Depsipeptide and congeners thereof for use as immunosuppressants” (XCYTE Therapies, Inc., priority 1999, dated 2006).

Experiments:
[1] = test system: CD154 on CD4 cells; assay: CD154 expression on CD4 cells with or without IL-2; assay type: cell-based, human; settings: 20 ng/ml added day three; 3×28 beads and/or 20 units/ml IL-2; read day 4; FIG. 9
Experimental: The effect of FR901228 on the induction of the CD154 activation marker on CD4 cells is studied. In this regard, cells are labeled with FITC-coupled anti-human CD4 Ab (Immunotech, Fullerton, Calif.), PE-coupled anti-human CD154 Ab (Becton Dickinson, Fullerton, Calif.), or FITC- or PE-coupled IgG1 isotype control Ab. Cells, 2×10^5 are labeled for 20 minutes at 4° C. with 2 μl of each antibody in a final volume of 30 μl, washed and resuspended in 1% parformaldehyde (Sigma, St. Louis, Mo.). The cells are stimulated for four days in the presence of 3×28 beads and/or 20 units/ml IL-2 or an anti-IL-2 antibody at day three, FR901228 is added to the culture at a concentration of 20 ng/ml. On day 4, mean fluorescence intensity is measured by flow cytometry.

[2] = test system: CD154 promoter in Jurkat T-cells; assay: GFP reporter under control of the CD154 promoter; assay type: cell-based; settings: 24 hours 3×28 beads; 0, 10, 50, 100 ng/ml; FIG. 11
Experimental: In this experiment Jurkat T-cells were stabily transfected with a vector construct (p-EGFP1, Clonetech) wherein the nucleotide sequence encoding green fluorescent protein was operably linked to the CD154 promoter cloned from Jurkat cells. Following selection of cells containing the vector of interest, the cells were subjected to stimulation for 24 hours with 3×28 beads in the presence of varying concentrations (0 to 100 ng/ml) of FR901228. Fluorescence was then detected using flow cytometry.

[3] = test system: CD4 cells; assay: Intracellular DNA content by propidium iodide staining (cell cycle); assay type: cell-based, human; settings: 3×28 beads 24 hours; 10 to 100 ng/ml; FIG. 12
Experimental: Unstimulated and stimulated (3×28 bead stimulation) CD4 cells were incubated with varying concentrations FR901228 and the intracellular DNA content was measured by staining with propidium iodide (PI) using standard procedures. In brief, the cells were stained with a mixture of 1 μg/ml PI and 0.03% saponin in PBS for about 20 to 30 minutes. […] Accordingly, FR901228 appears to inhibit the cell cycle of activated T-cells prior to entry of S-phase.

[4] = test system: peripheral blood lymphocyte (PBL); assay: Proliferation by MTT assay, PBL cultures; assay type: cell-based, human
Experimental: Cells isolated from human blood are grown in X-vivo media (Biowhittaker Inc., Walkersville, Md.) and depending on use supplemented with or without 20 U/ml IL-2 (Boehringer Mannheim, Indianapolis, Ind.) and supplemented with 5% human serum (Biowhittaker), 2 mM Glutamine (Life Technologies, Rockville, Md.) and 20 mM HEPES (Life Technology). Jurkat E6-1 cells (ATCC, Manassas, Va.) are grown in RPMI 1640 (Life Technologies) supplemented with 10% fetal bovine serum (FBS) (Biowhittaker), 2 mM glutamine (Life Technologies), […] (Life Technologies), and […] (Life Technologies).
Buffy coats from healthy human volunteer donors are obtained (American Red Cross, Portland, Oreg.). Peripheral blood mononuclear cells (PBMC) are obtained using Lymphocyte Separation Media (ICN Pharmaceuticals, Costa Mesa, Calif.) according to the manufacturers' instructions.
Peripheral blood lymphocytes (PBL) are obtained from the PBMC fraction by incubation in a culture flask (Costar, Pittsburgh, Pa.) or with uncoated Dynabeads (Dynal, Oslo, Norway), 1×10^8 cells/ml, 2 beads/cell, 2 h at 37° C. Monocytes and macrophages are removed by adherence to the culture flask or phagocytoze the paramagnetic beads that are depleted by magnetic cell separation according to the manufacture's instruction (Dynal). […] The purity of CD4 cells are routinely 91–95% as measured by flow cytometry. […]

[5] = test system: activated T-cells (peripheral blood lymphocytes); assay: Proliferation inhibition assay, CFDA-SE staining; assay type: cell-based, human; settings: added at time 0 or 24, 72, 120 hours post-stimulation with 3×28 beads; day 6; FIG. 7
Experimental: Peripheral blood lymphocytes are prepared as described above, stimulated with 3×28 beads and stained with carboxyfluorescein diacetate succinimidyl ester (CFDA-SE) at day 6 post stimulation. Cell stimulation was carried out as indicated above and the cells were washed twice with PBS and resuspended in media and incubated with CFDA-SE (Molecular Probes, OR). After about 10 minutes of staining, the cells are washed with media and FPS and dye incorporation was measured. FR901228 was added at various time points post-stimulation, at time 0 or at 24, 72, and 120 hours post-stimulation. FIG. 7 depicts flow data generated by CFDA-SE staining. The y-axis sets forth mean fluoresence intensity, which relates to the inverse of cell growth.

## C/C=C1\NC(=O)[C@H]2CSSCC/C=C/[C@H](CC(=O)N[C@H](C(C)C)C(=O)N2)OC(=O)[C@H](C(C)C)NC1=O [FR901228]
[1]
  CD154 expression in presence or absence of IL-2: suppression of CD154 expression
[2]
  induction of GFP expression under CD154 promoter: only cells having 0 ng/ml of FR901228 showed induction of GFP expression
[3]
  DNA synthesis in stimulated CD4 cells: DNA synthesis does not take place
[4]; stimulation by beads having anti-CD3 and anti-CD28 antibodies, FIG. 1
  inhibition of peripheral blood lymphocyte (PBL) proliferation: dose dependent inhibition
[4]; stimulation with Ionomycin/PMA, FIG. 2
  inhibition of peripheral blood lymphocyte (PBL) proliferation: dose dependent inhibition
[5]
  cell growth of activated T-cells (CFDA-SE mean fluorescence intensity): inhibited
